This is an account of results in patent publication US20230017045A1, “PYRIDINE AND PYRIMIDINE CARBOXYLATE HERBICIDES AND METHODS OF USE THEREOF” (Dow AgroSciences LLC, priority 2017, published 2023).

The subject of this assay is test plant species. As to the kind of experiment: Post-emergent herbicidal activity test (greenhouse, foliar spray, visual growth reduction). It is filed as in vivo. As to conditions: post-emergence, 336 h, 140 g ai/ha. The procedure, abridged: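 Seedlings were raised 7-21 d in a greenhouse under a 15 h photoperiod until the first or second true leaf. Each compound, dissolved in acetone:DMSO 97:3 and diluted into a surfactant-containing spray mixture, was then applied at 187 L/ha. Plants were subirrigated, and growth reduction was scored visually at 14 d.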

Setting [1] is: ECHCG: barnyardgrass (Echinochloa crus-galli), 14 days after application, read-out: Visual Growth Reduction (%) 14 Days After Application, ECHCG.
Where [2] appears, read: IPOHE: ivy-leaf morning glory (Ipomoea hederacea), 14 days after application, read-out: Visual Growth Reduction (%) 14 Days After Application, IPOHE.
[3] abbreviates: KCHSC: kochia (Bassia scoparia), 14 days after application, read-out: Visual Growth Reduction (%) 14 Days After Application, KCHSC.
The mark [4] stands for this setting: ORYSA: rice (Oryza sativa), 14 days after application, read-out: Visual Growth Reduction (%) 14 Days After Application, ORYSA.
Where [5] appears, read: SETFA: giant foxtail (Setaria faberi), 14 days after application, read-out: Visual Growth Reduction (%) 14 Days After Application, SETFA.
Setting [6] is: SORVU: grain sorghum (Sorghum vulgare), 14 days after application, read-out: Visual Growth Reduction (%) 14 Days After Application, SORVU.
The mark [7] stands for this setting: STEME: common chickweed (Stellaria media), 14 days after application, read-out: Visual Growth Reduction (%) 14 Days After Application, STEME.
[8] abbreviates: TRZAS: wheat, spring (Triticum aestivum), 14 days after application, read-out: Visual Growth Reduction (%) 14 Days After Application, TRZAS.
[9] abbreviates: blackgrass (Alopecurus myosuroides), 14 Days After Application, read-out: Visual Growth Reduction (%) ALOMY.
Where [10] appears, read: canada thistle (Cirsium arvense), 14 Days After Application, read-out: Visual Growth Reduction (%) CIRAR.
The mark [11] stands for this setting: crabgrass (Digitaria sanguinalis), 14 Days After Application, read-out: Visual Growth Reduction (%) DIGSA.
Where [12] appears, read: lambsquarters (Chenopodium album), 14 Days After Application, read-out: Visual Growth Reduction (%) CHEAL.
Where [13] appears, read: redroot pigweed (Amaranthus retroflexus), 14 Days After Application, read-out: Visual Growth Reduction (%) AMARE.
[14] abbreviates: wild oat (Avena fatua), 14 Days After Application, read-out: Visual Growth Reduction (%) AVEFA.
[15] abbreviates: yellow nutsedge (Cyperus esculentus), 14 Days After Application, read-out: Visual Growth Reduction (%) CYPES.

Like-named read-outs stand apart in the source and are kept apart here.

`COc1cc(C(F)(F)F)ccc1-c1nc(C(=O)OCc2ccccc2)c(Cl)cc1F` [F363, Benzyl 3-chloro-5-fluoro-6-(2-methoxy-4-(trifluoromethyl)phenyl)picolinate]: the pest or weed control at 140 g/ha is, setting by setting: under setting [1], 95 to 100%; under setting [2], 95 to 100%; under setting [3], 75 to 84%; under setting [4], 30 to 44%; under setting [5], 85 to 94%; under setting [6], 95 to 100%. In addition, the pest or weed control at 140 g/ha lay within 30 to 44% under setting [7]; 75 to 84% under setting [8]; 0 to 29% under setting [9]; 85 to 94% under setting [10]; 0 to 29% under setting [11]; 95 to 100% under setting [12]. The pest or weed control at 140 g/ha lay in the range of 95 to 100% under setting [13], 85 to 94% under setting [14] and 0 to 29% under setting [15].
Consider `COC(=O)c1nc(-c2ccc(OS(=O)(=O)C(F)(F)F)cc2Cl)ccc1Cl` [F364, methyl 3-chloro-6-(2-chloro-4-(((trifluoromethyl)sulfonyl)oxy)phenyl)picolinate], for which the pest or weed control at 140 g/ha reads like this: under setting [1], 0 to 29%; under setting [2], 85 to 94%; under setting [3], 0 to 29%; under setting [4], 0 to 29%; under setting [5], 60 to 74%; under setting [6], 85 to 94%. Besides, the pest or weed control at 140 g/ha runs as follows: under setting [7], 0 to 29%; under setting [8], 0 to 29%; under setting [9], 0 to 29%; under setting [10], 60 to 74%; under setting [11], 75 to 84%; under setting [12], 75 to 84%. For the same compound, the pest or weed control at 140 g/ha by setting is: under setting [13], 60 to 74%; under setting [14], 0 to 29%; under setting [15], 0 to 29%.
Turning to `COC(=O)c1nc(-c2ccc(OC)cc2)c(F)cc1Cl` [F365, Methyl 3-chloro-5-fluoro-6-(4-methoxyphenyl) picolinate], the pest or weed control at 140 g/ha under setting [1] was 0 to 29%; the pest or weed control at 140 g/ha under setting [2] fell in the range of 0 to 29%; the pest or weed control at 140 g/ha under setting [3] was 0 to 29%; the pest or weed control at 140 g/ha under setting [4] lay within 0 to 29%; the pest or weed control at 140 g/ha under setting [5] lay within 0 to 29%; the pest or weed control at 140 g/ha under setting [6] was in the range of 0 to 29%. In addition, the pest or weed control at 140 g/ha was 0 to 29% under setting [7]; 0 to 29% under setting [8]; 0 to 29% under setting [9]; 0 to 29% under setting [10]; 0 to 29% under setting [11]; 0 to 29% under setting [12]. For the same compound, the pest or weed control at 140 g/ha reads like this: under setting [13], 0 to 29%; under setting [14], 0 to 29%; under setting [15], 0 to 29%.
Consider `COc1cc(C(F)(F)F)ccc1-c1ncc(Cl)c(C(=O)O)n1` [F366, 5-Chloro-2-(2-methoxy-4-(trifluoromethyl)phenyl)pyrimidine-4-carboxylic acid], for which the pest or weed control at 140 g/ha under setting [1] lay in the range of 75 to 84%; the pest or weed control at 140 g/ha under setting [2] fell in the range of 95 to 100%; the pest or weed control at 140 g/ha under setting [3] was 0 to 29%; the pest or weed control at 140 g/ha under setting [4] fell in the range of 0 to 29%; the pest or weed control at 140 g/ha under setting [5] lay in the range of 75 to 84%; the pest or weed control at 140 g/ha under setting [6] is 75 to 84%. Also, the pest or weed control at 140 g/ha is, setting by setting: under setting [7], 0 to 29%; under setting [8], 0 to 29%; under setting [9], 0 to 29%; under setting [10], 30 to 44%; under setting [11], 75 to 84%; under setting [12], 85 to 94%. Besides, the pest or weed control at 140 g/ha is 75 to 84% under setting [13], 0 to 29% under setting [14] and 0 to 29% under setting [15].
Regarding `COC(=O)c1nc(-c2cc(F)c3c(c2)OC(F)(F)O3)ccc1Cl` [F367, Methyl 3-chloro-6-(2,2,7-trifluorobenzo[d][1,3]dioxol-5-yl)picolinate], the pest or weed control at 140 g/ha under setting [1] lay within 0 to 29%; the pest or weed control at 140 g/ha under setting [2] is 95 to 100%; the pest or weed control at 140 g/ha under setting [3] was in the range of 0 to 29%; the pest or weed control at 140 g/ha under setting [4] lay in the range of 0 to 29%; the pest or weed control at 140 g/ha under setting [5] is 0 to 29%; the pest or weed control at 140 g/ha under setting [6] fell in the range of 0 to 29%. The pest or weed control at 140 g/ha by setting is: under setting [7], 0 to 29%; under setting [8], 0 to 29%; under setting [9], 0 to 29%; under setting [10], 0 to 29%; under setting [11], 75 to 84%; under setting [12], 0 to 29%. Also, the pest or weed control at 140 g/ha runs as follows: under setting [13], 0 to 29%; under setting [14], 0 to 29%; under setting [15], 0 to 29%.
As to `O=C(O)c1nc(-c2cc(F)c3c(c2)OC(F)(F)O3)ccc1Cl` [F368, 3-Chloro-6-(2,2,7-trifluorobenzo[d][1,3]dioxol-5-yl)picolinic acid], the pest or weed control at 140 g/ha is 0 to 29% under setting [1]; 95 to 100% under setting [2]; 0 to 29% under setting [3]; 0 to 29% under setting [4]; 45 to 59% under setting [5]; 75 to 84% under setting [6]. For the same compound, the pest or weed control at 140 g/ha reads like this: under setting [7], 0 to 29%; under setting [8], 0 to 29%; under setting [9], 0 to 29%; under setting [10], 0 to 29%; under setting [11], 75 to 84%; under setting [12], 0 to 29%. The pest or weed control at 140 g/ha lay in the range of 0 to 29% under setting [13], 0 to 29% under setting [14] and 0 to 29% under setting [15].
With `COC(=O)c1nc(-c2ccc3c(c2OC)OC(F)(F)O3)ccc1Cl` [F369, Methyl 3-chloro-6-(2,2-difluoro-4-methoxybenzo[d][1,3]dioxol-5-yl)picolinate], the pest or weed control at 140 g/ha was 45 to 59% under setting [1]; 95 to 100% under setting [2]; 30 to 44% under setting [3]; 0 to 29% under setting [4]; 60 to 74% under setting [5]; 85 to 94% under setting [6]. In addition, the pest or weed control at 140 g/ha was 0 to 29% under setting [7]; 60 to 74% under setting [8]; 30 to 44% under setting [9]; 85 to 94% under setting [10]; 85 to 94% under setting [11]; 30 to 44% under setting [12]. Further, the pest or weed control at 140 g/ha by setting is: under setting [13], 60 to 74%; under setting [14], 30 to 44%; under setting [15], 0 to 29%.
Turning to `COC(=O)c1nc(-c2cc(Cl)c(C(F)(F)F)cc2C)c(F)cc1Cl` [F370, Methyl 3-chloro-6-(5-chloro-2-methyl-4-(trifluoromethyl)phenyl)-5-fluoropicolinate], the pest or weed control at 140 g/ha under setting [1] lay within 0 to 29%; the pest or weed control at 140 g/ha under setting [2] lay within 95 to 100%; the pest or weed control at 140 g/ha under setting [3] fell in the range of 0 to 29%; the pest or weed control at 140 g/ha under setting [4] is 0 to 29%; the pest or weed control at 140 g/ha under setting [5] is 60 to 74%; the pest or weed control at 140 g/ha under setting [6] lay in the range of 85 to 94%. The pest or weed control at 140 g/ha is, setting by setting: under setting [7], 0 to 29%; under setting [8], 0 to 29%; under setting [9], 0 to 29%; under setting [10], 75 to 84%; under setting [11], 45 to 59%; under setting [12], 45 to 59%. In addition, the pest or weed control at 140 g/ha under setting [13] fell in the range of 85 to 94%, the pest or weed control at 140 g/ha under setting [14] lay within 0 to 29% and the pest or weed control at 140 g/ha under setting [15] lay within 0 to 29%.
